This note sets out measurements from ChEMBL document CHEMBL1128348, “Potent non-peptide fibrinogen receptor antagonists which present an alternative pharmacophore” (J Med Chem, 1995).

For one experiment, the species on record is Homo sapiens. The experiment in a line: Antiaggregatory activity against human platelet-rich plasma induced by ADP. The class given is functional, organism-based.
The target of experiment [1] is Integrin alpha-IIb/beta-3 (Homo sapiens, UniProt P05106+P08514). The experiment in a line: Inhibition of [3H]-SKF- 107260 binding to purified alphaIIb-beta3 integrin of human platelets.
Integrin alpha-IIb/beta-3, sequence (P05106 27-788 limits assumed): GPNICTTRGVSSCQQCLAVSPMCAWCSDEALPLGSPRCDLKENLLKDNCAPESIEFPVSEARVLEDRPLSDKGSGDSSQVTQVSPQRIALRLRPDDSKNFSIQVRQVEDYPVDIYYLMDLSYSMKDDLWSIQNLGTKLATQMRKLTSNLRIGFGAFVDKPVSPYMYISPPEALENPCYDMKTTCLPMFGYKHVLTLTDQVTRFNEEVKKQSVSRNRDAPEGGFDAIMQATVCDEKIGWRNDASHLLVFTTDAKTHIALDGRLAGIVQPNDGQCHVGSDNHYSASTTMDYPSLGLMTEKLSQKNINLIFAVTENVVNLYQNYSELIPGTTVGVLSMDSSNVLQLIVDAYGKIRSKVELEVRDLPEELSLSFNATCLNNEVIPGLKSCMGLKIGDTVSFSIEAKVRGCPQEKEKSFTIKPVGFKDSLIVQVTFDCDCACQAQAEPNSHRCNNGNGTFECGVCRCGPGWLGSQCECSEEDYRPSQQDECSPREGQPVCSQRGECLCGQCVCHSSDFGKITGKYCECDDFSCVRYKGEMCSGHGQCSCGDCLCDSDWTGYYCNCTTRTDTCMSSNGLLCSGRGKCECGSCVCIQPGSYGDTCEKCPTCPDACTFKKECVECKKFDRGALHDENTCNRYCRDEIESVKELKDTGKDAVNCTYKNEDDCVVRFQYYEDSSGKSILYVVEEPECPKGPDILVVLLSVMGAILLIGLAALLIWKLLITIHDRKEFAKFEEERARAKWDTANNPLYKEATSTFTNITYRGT
Integrin alpha-IIb/beta-3, sequence (P08514 32-887 limits assumed): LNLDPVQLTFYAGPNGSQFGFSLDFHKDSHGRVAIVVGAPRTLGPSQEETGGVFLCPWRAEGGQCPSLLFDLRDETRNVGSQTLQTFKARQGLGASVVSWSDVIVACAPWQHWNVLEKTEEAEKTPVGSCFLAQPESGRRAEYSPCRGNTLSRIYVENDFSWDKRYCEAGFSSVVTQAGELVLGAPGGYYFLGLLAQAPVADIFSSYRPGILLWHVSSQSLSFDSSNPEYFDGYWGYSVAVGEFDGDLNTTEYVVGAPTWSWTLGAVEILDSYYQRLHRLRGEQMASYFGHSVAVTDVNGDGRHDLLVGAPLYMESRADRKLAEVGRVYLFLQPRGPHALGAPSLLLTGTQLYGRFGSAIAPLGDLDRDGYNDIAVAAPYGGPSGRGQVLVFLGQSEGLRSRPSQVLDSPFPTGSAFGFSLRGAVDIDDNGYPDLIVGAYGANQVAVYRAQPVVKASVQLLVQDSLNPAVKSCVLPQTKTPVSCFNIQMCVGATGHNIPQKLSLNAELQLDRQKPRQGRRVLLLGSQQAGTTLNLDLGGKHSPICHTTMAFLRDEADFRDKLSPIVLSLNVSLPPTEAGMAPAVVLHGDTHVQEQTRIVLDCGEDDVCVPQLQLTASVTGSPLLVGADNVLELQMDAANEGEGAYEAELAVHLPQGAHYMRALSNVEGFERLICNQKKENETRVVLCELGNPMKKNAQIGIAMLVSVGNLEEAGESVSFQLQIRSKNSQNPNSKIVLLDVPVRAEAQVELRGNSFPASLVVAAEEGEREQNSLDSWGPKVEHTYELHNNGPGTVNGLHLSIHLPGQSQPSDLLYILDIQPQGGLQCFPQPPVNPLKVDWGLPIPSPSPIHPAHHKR
Integrin alpha-IIb/beta-3, sequence (P08514 891-1039 limits assumed): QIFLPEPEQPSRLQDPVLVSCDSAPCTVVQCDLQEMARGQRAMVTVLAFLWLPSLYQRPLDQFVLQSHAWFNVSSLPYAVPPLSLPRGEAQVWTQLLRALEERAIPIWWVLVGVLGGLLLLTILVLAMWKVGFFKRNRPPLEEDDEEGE

Structures are written as SMILES.

As a reminder, the IC50 is the concentration needed to halve the response being measured. Lower therefore signals greater potency. What is called Ki is a measure of affinity in units of concentration, obtained from inhibition or displacement.

Regarding `N=C(N)NCCC[C@@H]1NC(=O)[C@@H]2CCCN2C(=O)[C@H]2CCCN2C(=O)CNC(=O)[C@H](CC(=O)O)NC(=O)CNC1=O`, 5260 nM corresponded to half-maximal inhibition in the experiment filed under Homo sapiens (IC50). The Ki in experiment [1] came out at 1900 nM.
In the experiment filed under Homo sapiens, `CN1C(=O)c2ccccc2SSc2ccccc2NC(=O)[C@H](CC(=O)O)NC(=O)CNC(=O)[C@@H]1CCCN=C(N)N` [SKF-107260] gave an IC50 of 90 nM.
Compound `N=C(N)c1ccc(NC(=O)c2ccc3c(c2)NC(CC(=O)O)C(=O)N(CCc2ccccc2)C3)cc1` (configuration not stated) had a half-maximal inhibitory concentration (IC50) in the experiment listed under Homo sapiens of 150 nM. Further, in experiment [1], the Ki worked out at 2.3 nM.
On the same counts, the results for `N=C(N)c1ccc(NC(=O)c2ccc3c(c2)CN(CCc2ccccc2)C(=O)C(CC(=O)O)N3)cc1` (configuration not stated) are 380 nM and 26 nM.
